The values below come from US12570642B2, “GLP-IR modulating compounds” (Gilead Sciences, Inc., priority 2021, dated 2026).

For this test, the target named is GLP-1R (Homo sapiens, UniProt P43220). Put plainly: GLP-1R Activation - cAMP Assay. The settings on record: each compound run on one of the two cAMP assays (Assay 1 or Assay 2, not specified). In kind it is cell-based. As for the experimental part: GLP-1R Activation—cAMP Assay 1
GLP-1R activation by compounds of the present disclosure were quantified by measuring cAMP increase in CHO cells stably expressing GLP-1R (MultiSpan product #C1267-1a). The cells were harvested and plated in growth medium (DMEM/F-12 (Corning product #10-090-CV) supplemented with 10% FBS (HyClone product #SH30071-03), penicillin/streptomycin (Corning product #30-002CI) and 10 μg/ml puromycin (Gibco product #A11138-03)) at 1,000 cells/well in a 384-well plate (Greiner product #781080). The cells were then incubated overnight at 37° C., 5% CO2. The next day, the medium was removed and the cells were washed with DPBS (Corning product #21-031-CM) before adding the assay medium (HBSS, Corning product #21-023-CV) with 20 mM Hepes (Gibco product #15630-080) and 0.1% BSA (Rockland Immunochemicals product #BSA-1000)). Following the medium change, the cells were incubated for 1 hour at 37° C., 5% CO2. The tested GLP-1 compound was added to the cells in a 10-point dose response followed by a 30 minutes incubation at 37° C., 5% CO2. cAMP concentration increase was then detected using Cisbio's cAMP Gs Dynamic Kit (product #62AM4PEC) according to the manufacturer's protocol. The response was plotted against the log of the agonist concentration and fitted to a sigmoidal equation to determine the EC50.
For orientation: Cyclic AMP is a second messenger, typically raised through Gs and lowered through Gi signalling.

[1] abbreviates: cAMP increase in CHO cells stably expressing GLP-1R.

Sequence of GLP-1R (P43220 24-463): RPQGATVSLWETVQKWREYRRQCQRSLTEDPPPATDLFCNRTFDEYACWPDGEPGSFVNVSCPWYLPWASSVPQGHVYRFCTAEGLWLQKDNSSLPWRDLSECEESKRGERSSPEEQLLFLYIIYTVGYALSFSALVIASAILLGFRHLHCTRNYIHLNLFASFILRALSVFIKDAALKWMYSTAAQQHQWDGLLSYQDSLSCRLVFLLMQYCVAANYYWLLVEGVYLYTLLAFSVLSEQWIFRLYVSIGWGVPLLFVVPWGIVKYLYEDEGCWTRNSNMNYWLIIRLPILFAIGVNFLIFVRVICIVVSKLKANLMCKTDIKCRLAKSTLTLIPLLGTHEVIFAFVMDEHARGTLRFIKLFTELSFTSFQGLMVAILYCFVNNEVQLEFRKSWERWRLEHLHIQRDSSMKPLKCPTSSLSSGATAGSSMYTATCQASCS

As a reminder, the EC50 is the midpoint of the concentration-response curve. Compound `C#Cc1ccc(COc2cccc(-c3cc(F)c(Cc4nc5ccc(C(=O)O)cc5n4CCOC)cc3F)n2)c(F)c1` [Example 111] displayed an EC50 under setting [1] of 1.46 nM.
In the case of `COCCn1c(Cc2cc(F)c(-c3cccc(OCc4cnc(C(F)F)cn4)n3)cc2F)nc2ccc(C(=O)O)cc21` [Example 94], the EC50 under setting [1] is 23.9 nM.
Under setting [1], `CC1(C)COC[C@H]1n1c(Cc2cc(F)c(-c3cccc(OCc4ccc(C(F)F)cc4F)n3)cc2F)nc2c(F)cc(C(=O)O)cc21` (single isomer, unassigned) [Example 502A] displayed an EC50 of 0.281 nM.
In the case of `CC1(C)COC[C@H]1n1c(Cc2ccc(-c3ccnc(OCc4ccc(C#N)cc4F)n3)cc2F)nc2c(F)cc(C(=O)O)cc21` [Example 298, (S)-2-(4-(2-((4-cyano-2-fluorobenzyl)oxy)pyrimidin-4-yl)-2-fluorobenzyl)-1-(4,4-dimethyltetrahydrofuran-3-yl)-4-fluoro-1H-benzo[d]imidazole-6-carboxylic acid], the EC50 under setting [1] came to 0.663 nM.
Still for that read-out and setting: to `CC1(C)COCC1n1c(Cc2cc(F)c(-c3ccc(F)c(OCc4ccc(C#N)cc4F)n3)cc2Cl)nc2ccc(C(=O)O)cc21` (centres unmarked) [Example 345, 2-(2-chloro-4-(6-((4-cyano-2-fluorobenzyl)oxy)-5-fluoropyridin-2-yl)-5-fluorobenzyl)-1-(4,4-dimethyltetrahydrofuran-3-yl)-1H-benzo[d]imidazole-6-carboxylic acid] belongs 0.197 nM; to `COCCn1c(Cc2cc(F)c(-c3cccc(OCc4ccc(C(F)(F)F)nc4Cl)n3)cc2F)nc2ccc(C(=O)O)cc21` [Example 34, 2-(4-(6-((2-chloro-6-(trifluoromethyl)pyridin-3-yl)methoxy)pyridin-2-yl)-2,5-difluorobenzyl)-1-(2-methoxyethyl)-1H-benzo[d]imidazole-6-carboxylic Acid], 3.25 nM.
On the same count and under the same terms, to `COCCn1c(Cc2c(F)cc(-c3cccc(OCc4ccc(-n5ccnn5)nc4)n3)c(F)c2F)nc2c(F)cc(C(=O)O)cc21` [Example 253, 2-(4-(6-((6-(1H-1,2,3-triazol-1-yl)pyridin-3-yl)methoxy)pyridin-2-yl)-2,3,6-trifluorobenzyl)-4-fluoro-1-(2-methoxyethyl)-1H-benzo[d]imidazole-6-carboxylic acid] belongs 0.071 nM; to `CC1(C)COC[C@H]1n1c(Cc2cc(F)c(-c3cccc(OCc4ccc(Cl)c(F)c4F)n3)cc2F)nc2ccc(C(=O)O)cc21` [Example 488, (S)-2-(4-(6-((4-chloro-2,3-difluorobenzyl)oxy)pyridin-2-yl)-2,5-difluorobenzyl)-1-(4,4-dimethyltetrahydrofuran-3-yl)-1H-benzo[d]imidazole-6-carboxylic acid], 0.282 nM.
On to `CO[C@@H]1CN(S(C)(=O)=O)C[C@H]1n1c(Cc2cc(F)c(-c3cccc(OCc4ccc(C#N)cc4F)n3)cc2F)nc2ccc(C(=O)O)cc21` [Example 88], for which, where the note is “[…]”, the EC50 was 136 nM.
The compound `C[C@H]1COC[C@H]1n1c(Cc2cc(F)c(-c3cccc(OCc4ccc(Cl)cc4F)n3)cc2F)nc2ccc(C(=O)O)cc21` [Example 472, 2-(4-(6-((4-chloro-2-fluorobenzyl)oxy)pyridin-2-yl)-2,5-difluorobenzyl)-1-((3S,4R)-4-methyltetrahydrofuran-3-yl)-1H-benzo[d]imidazole-6-carboxylic acid] showed an EC50 under setting [1] of 0.069 nM.
In turn, `CC1(C)COC[C@H]1n1c(Cc2c(F)cc(-c3ccc(F)c(OCc4ccc(F)cc4)n3)c(F)c2F)nc2ccc(C(=O)O)cc21` [Example 558, (S)-1-(4,4-dimethyltetrahydrofuran-3-yl)-2-(2,3,6-trifluoro-4-(5-fluoro-6-((4-fluorobenzyl)oxy)pyridin-2-yl)benzyl)-1H-benzo[d]imidazole-6-carboxylic acid] gave an EC50 under setting [1] of 0.132 nM.
Still for that read-out and setting: to `COC(C)(C)Cn1c(Cc2cc(F)c(-c3cccc(OCc4cnc(-n5ccnn5)cc4Cl)n3)cc2F)nc2ccc(C(=O)O)cc21` [Example 563, 2-(4-(6-((4-chloro-6-(1H-1,2,3-triazol-1-yl)pyridin-3-yl)methoxy)pyridin-2-yl)-2,5-difluorobenzyl)-1-(2-methoxy-2-methylpropyl)-1H-benzo[d]imidazole-6-carboxylic acid] belongs 0.041 nM.
Still for that read-out and setting: to `COCCn1c(Cc2cc(F)c(-c3cccc(OCc4cc(F)c(C)cc4F)n3)cc2F)nc2ccc(C(=O)O)cc21` [Example 28, 2-(4-(6-((2,5-difluoro-4-methylbenzyl)oxy)pyridin-2-yl)-2,5-difluorobenzyl)-1-(2-methoxyethyl)-1H-benzo[d]imidazole-6-carboxylic Acid] belongs 1.46 nM; to `COCCn1c(Cc2cc(F)c(-c3cccc(OCc4ccc(-c5ccnn5C)nc4)n3)cc2F)nc2ccc(C(=O)O)cc21` [Example 110, 2-(2,5-difluoro-4-(6-((6-(1-methyl-1H-pyrazol-5-yl)pyridin-3-yl)methoxy)pyridin-2-yl)benzyl)-1-(2-methoxyethyl)-1H-benzo[d]imidazole-6-carboxylic Acid], 4.93 nM.
Same read-out and setting: the value for `CC1(C)COC[C@H]1n1c(Cn2cc(F)c(-c3ccc(F)c(OCc4ccc(Cl)cc4F)n3)cc2=O)nc2c(F)cc(C(=O)O)cc21` [Example 131, (S)-2-((6-((4-chloro-2-fluorobenzyl)oxy)-5,5′-difluoro-2′-oxo-[2,4′-bipyridin]-1′(2′H)-yl)methyl)-1-(4,4-dimethyltetrahydrofuran-3-yl)-4-fluoro-1H-benzo[d]imidazole-6-carboxylic Acid] was 0.145 nM.
With `CC1(C)COC[C@H]1n1c(Cc2ccc(-c3ccc(F)c(OCc4ccc(C#N)cc4F)n3)c(F)c2)nc2ccc(C(=O)O)cc21` [Example 369, (S)-2-(4-(6-((4-cyano-2-fluorobenzyl)oxy)-5-fluoropyridin-2-yl)-3-fluorobenzyl)-1-(4,4-dimethyltetrahydrofuran-3-yl)-1H-benzo[d]imidazole-6-carboxylic acid], the midpoint of the response under setting [1], the EC50, lay at 0.364 nM.
With `CCO[C@H]1COC[C@H]1n1c(Cc2cc(F)c(-c3cccc(OCc4ccc(Cl)cc4F)n3)cc2F)nc2ccc(C(=O)O)cc21` [Example 571, 2-(4-(6-((4-chloro-2-fluorobenzyl)oxy)pyridin-2-yl)-2,5-difluorobenzyl)-1-((3R,4R)-4-ethoxytetrahydrofuran-3-yl)-1H-benzo[d]imidazole-6-carboxylic acid], the EC50 under setting [1] turned out to be 1.27 nM.
As to `CO[C@@H]1CN(S(C)(=O)=O)C[C@@H]1n1c(Cc2cc(F)c(-c3cccc(OCc4ccc(C#N)cc4F)n3)cc2F)nc2ccc(C(=O)O)cc21` [Example 89, 2-(4-(6-((4-cyano-2-fluorobenzyl)oxy)pyridin-2-yl)-2,5-difluorobenzyl)-1-((3S,4R)-4-methoxy-1-(methylsulfonyl)pyrrolidin-3-yl)-1H-benzo[d]imidazole-6-carboxylic Acid], for the setting “[…]”, a half-maximal response (EC50) required 15.3 nM.
With `N#Cc1ccc(COc2cccc(-c3cc(F)c(Cc4nc5ccc(C(=O)O)cc5n4[C@H]4COC[C@H]4CO)cc3F)n2)c(F)c1` (single isomer, unassigned) [Example 436], it took 0.993 nM to reach a half-maximal effect under setting [1] (EC50).
Still for that read-out and setting: to `Cc1cc(Cc2nc3ccc(C(=O)O)cc3n2[C@@H]2COCC2(C)C)c(F)cc1-c1cccc(OCc2ccc(C#N)cc2)n1` [Example 179, (S)-2-(4-(6-((4-cyanobenzyl)oxy)pyridin-2-yl)-2-fluoro-5-methylbenzyl)-1-(4,4-dimethyltetrahydrofuran-3-yl)-1H-benzo[d]imidazole-6-carboxylic Acid] belongs 0.064 nM.
